Where two headings read alike, the source gives them in different places.
Assays:
Type in all cases: cell-based
[1] = system: 15-PGDH luciferase fusion construct in V9m reporter cell line; assay: 15-PGDH-luciferase fusion gene reporter induction, V9m cells
[2] = system: 15-PGDH luciferase fusion construct in LS174T reporter cell line; assay: 15-PGDH-luciferase fusion gene reporter induction, LS174T cells; details: Homo sapiens
[3] = system: 15-PGDH luciferase fusion construct in Vaco503 reporter cell line; assay: 15-PGDH-luciferase fusion gene reporter induction, V503 cells
[4] = read-out: V9M-SC3 Reporter activity ([…]) (%), […], Table 18, read-out: V9M-SC3 Reporter activity (2.5 μM) (%)
[5] = read-out: Ls174T-SC1 reporter activity, % ([…]), […], Table 18, read-out: Ls174T-SC1 reporter activity, % (2.5 μM)
[6] = read-out: Ls174T-SC1 reporter activity, % ([…]), […], Table 18, read-out: Ls174T-SC1 reporter activity, % (7.5 μM)
[7] = read-out: V503-3H9-7 reporter activity, % ([…]), […], Table 18, read-out: V503-3H9-7 reporter activity, % (2.5 μM)
[8] = read-out: V503-3H9-7 reporter activity, % ([…]), […], Table 18, read-out: V503-3H9-7 reporter activity, % (7.5 μM)
[9] = read-out: V9M-SC3 Reporter activity ([…]) (%), V9m reporter cells, […] compound, % induction of luciferase activity over basal level, read-out: V9M-SC3 Reporter activity (2.5 μM) (%)
[10] = read-out: V9M-SC3 Reporter activity ([…]), %, V9m reporter cells, […] compound, % induction of luciferase activity over basal level, read-out: V9M-SC3 Reporter activity (7.5 μM), %
[11] = read-out: Ls174T-SC1 reporter activity, % ([…]), LS174T reporter cells, […] compound, % induction of luciferase activity over basal level, read-out: Ls174T-SC1 reporter activity, % (2.5 μM)
[12] = read-out: Ls174T-SC1 reporter activity, % ([…]), LS174T reporter cells, […] compound, % induction of luciferase activity over basal level, read-out: Ls174T-SC1 reporter activity, % (7.5 μM)
[13] = read-out: V503-3H9-7 reporter activity, % ([…]), V503 reporter cells, […] compound, % induction of luciferase activity over basal level, read-out: V503-3H9-7 reporter activity, % (2.5 μM)
[14] = read-out: V503-3H9-7 reporter activity, % ([…]), V503 reporter cells, […] compound, % induction of luciferase activity over basal level, read-out: V503-3H9-7 reporter activity, % (7.5 μM)
[15] = read-out: V9M reporter activity ([…]), […], % induction of luciferase activity over basal level, Table 17, read-out: V9M reporter activity (2.5 μM)
[16] = read-out: V9M reporter activity ([…]), […], % induction over basal level, Table 17, read-out: V9M reporter activity (7.5 μM)
[17] = read-out: LS174T reporter activity ([…]), […], % induction over basal level, Table 17, read-out: LS174T reporter activity (2.5 μM)
[18] = read-out: lS174T reporter activity ([…]), […], % induction over basal level, Table 17, read-out: lS174T reporter activity (7.5 μM)
[19] = read-out: V503 reporter activity ([…]), […], % induction over basal level, Table 17, read-out: V503 reporter activity (2.5 μM)
[20] = read-out: V503 reporter activity ([…]), […], % induction over basal level, Table 17, read-out: V503 reporter activity (7.5 μM)

| SMILES | activation at […] [1, 4] | activation at […] [2, 5] | activation at […] [2, 6] | activation at […] [3, 7] | activation at […] [3, 8] | activation at […] [1, 9] | activation at […] [1, 10] | activation at […] [2, 11] | activation at […] [2, 12] | activation at […] [3, 13] | activation at […] [3, 14] | also measured |
| --- | --- | --- | --- | --- | --- | --- | --- | --- | --- | --- | --- | --- |
| CCc1ccc(N(CC(=O)Nc2cccnc2)S(=O)(=O)c2ccccc2)cc1 [461439−84−9] | -30.3% | 4.83% | -35% | 1.57% | 5.41% | – | – | – | – | – | – | – |
| COc1ccc(OC)c(N(CC(=O)Nc2ccccc2Cl)S(=O)(=O)c2ccccc2)c1 [SW202987] | – | – | – | – | – | -22% | -21% | -8.3% | 20.6% | 70.1% | 145% | – |
| CCCC[S+]([O-])c1ncccc1N (stereo not shown) [SW208070, 2-(butylsulfinyl)pyridin-3-amine] | – | – | – | – | – | – | – | – | – | – | – | activation at […] ([1]; read-out: V9M reporter activity ([…]), […], % increased luciferase activity over basal level, 100 = doubling, read-out: V9M reporter activity (2.5 uM)): 22.6%; activation at […] ([1]; read-out: V9M reporter activity ([…]), […], % increased luciferase activity over basal level, 100 = doubling, read-out: V9M reporter activity (7.5 uM)): 12.1%; activation at […] ([2]; read-out: LS174T reporter activity ([…]), […], % increased luciferase activity over basal level, read-out: LS174T reporter activity (2.5 uM)): 19.7%; activation at […] ([2]; read-out: LS174T reporter activity ([…]), […], % increased luciferase activity over basal level, read-out: LS174T reporter activity (7.5 uM)): 15.4%; activation at […] ([3]; read-out: V503 reporter activity ([…]), […], % increased luciferase activity over basal level, read-out: V503 reporter activity (2.5 uM)): 19.7%; activation at […] ([3]; read-out: V503 reporter activity ([…]), […], % increased luciferase activity over basal level, read-out: V503 reporter activity (7.5 uM)): 15.4% |
| COc1ccc(OC)c(N(CC(=O)Nc2ccc(Cl)nc2)S(=O)(=O)c2ccccc2)c1 [SW202970] | – | – | – | – | – | 32.7% | 17.8% | 47.9% | 55.9% | 179% | 122% | – |
| CCOc1ccc(N(CC(=O)Nc2cccnc2)S(=O)(=O)c2ccccc2)cc1 [428473−22−7] | -17.9% | -15.5% | 10.6% | 19.1% | 19.8% | – | – | – | – | – | – | – |
| O=C(CN(c1ccc2c(c1)OCCO2)S(=O)(=O)c1ccccc1)Nc1cccnc1 [701217-00-7] | -2.05% | -6.89% | -0.54% | 20.1% | 33.4% | – | – | – | – | – | – | – |
| COc1ccc(S(=O)(=O)N(CC(=O)Nc2cccnc2)c2cc(C(F)(F)F)ccc2C(F)(F)F)cc1 [SW208008] | – | – | – | – | – | -5.96% | -0.92% | -2.16% | 10% | 31.9% | 39.6% | – |
| COc1ccc(N(CC(=O)Nc2ccccc2Br)S(=O)(=O)c2ccc(C)cc2)c(OC)c1 [compound 771138] | – | – | – | – | – | – | – | – | – | – | – | activation at […] [1, 15]: -4.36%; activation at […] [1, 16]: 6.75%; activation at […] [2, 17]: 13.6%; activation at […] [2, 18]: 9.23%; activation at […] [3, 19]: 34.4%; activation at […] [3, 20]: 72.6% |
| COc1ccc(OC)c(N(CC(=O)Nc2ccccc2Br)S(=O)(=O)c2ccc(C)cc2)c1 [compound 771132] | – | – | – | – | – | – | – | – | – | – | – | activation at […] [1, 15]: -2.26%; activation at […] [1, 16]: 12.2%; activation at […] [2, 17]: 14%; activation at […] [2, 18]: 13.5%; activation at […] [3, 19]: 24.8%; activation at […] [3, 20]: 40.8% |
| CCCOC(=O)CN(c1cc(OC)ccc1OC)S(=O)(=O)c1ccccc1 [SW202986] | – | – | – | – | – | -22.9% | -9.6% | 0.21% | 33.8% | 60.2% | 175% | – |
| COc1ccc(OC)c(N(CC(=O)Nc2cccnc2)S(=O)(=O)c2c(C)cc(C)cc2C)c1 [SW202953] | – | – | – | – | – | 13% | 34.8% | 20.7% | 30.7% | 32% | 50.9% | – |
| COc1ccc(N(CC(=O)Nc2cccnc2)S(=O)(=O)c2ccccc2)cc1 [418783−65−0] | 0.51% | -12.6% | 5.81% | 11.6% | 6.68% | – | – | – | – | – | – | – |
| COc1ccc(NC(=O)CN(c2ccccc2OC)S(C)(=O)=O)cc1 [compound 920847] | – | – | – | – | – | – | – | – | – | – | – | activation at […] [1, 15]: 9.26%; activation at […] [1, 16]: 17.7%; activation at […] [2, 17]: 6.18%; activation at […] [2, 18]: 2.97%; activation at […] [3, 19]: -4.47%; activation at […] [3, 20]: -10.6% |
| COC(=O)c1ccccc1NC(=O)CN(c1cc(OC)ccc1OC)S(=O)(=O)c1ccccc1 [333449-58-4] | 6.5% | -5.9% | -3.99% | 50.1% | 20.7% | – | – | – | – | – | – | – |

Source: US9790233B2, “Compositions and methods of modulating 15-PGDH activity” (CASE WESTERN RESERVE UNIVERSITY, priority 2012, dated 2017)
